The target of the test is T1, Plk1 (Homo sapiens, UniProt P53350).
T1 construct: in the presence of 15 nM Plk1 (A20-K338)
As to the kind of experiment: Plk1 inhibition assay (radioactive-phosphate incorporation). Format: biochemical. Conditions: Ki(app) from [γ-33P]ATP incorporation, 25° C. The method, then:
Compounds of the present invention may be evaluated as inhibitors of human PLK kinase using the following assays.
Compounds were screened for their ability to inhibit Plk1 using a radioactive-phosphate incorporation assay. Assays were carried out in a mixture of 25 mM HEPES (pH 7.5), 10 mM MgCl2, and 1 mM DTT. Final substrate concentrations were 50 μM [γ-33P]ATP (136 mCi 33P ATP/mmol ATP, Amersham Pharmacia Biotech/Sigma Chemicals) and 10 μM peptide (SAM68 protein Δ332-443). Assays were carried out at 25° C. in the presence of 15 nM Plk1 (A20-K338). An assay stock buffer solution was prepared containing all of the reagents listed above, with the exception of ATP and the test compound of interest. 30 μL of the stock solution was placed in a 96 well plate followed by addition of 2 μL of DMSO stock containing serial dilutions of the test compound (typically starting from a final concentration of 10 μM with 2-fold serial dilutions) in duplicate (final DMSO concentration 5%). The plate was pre-incubated for 10 minutes at 25° C. and the reaction initiated by addition of 8 μL [γ33P]ATP (final concentration 50 μM).
The reaction was stopped after 60 minutes by the addition of 100 μL 0.14M phosphoric acid. A multiscreen phosphocellulose filter 96-well plate (Millipore, Cat no. MAPHN0B50) was pretreated with 100 μL 0.2M phosphoric acid prior to the addition of 125 μL of the stopped assay mixture. The plate was washed with 4×200 μL 0.2M phosphoric acid. After drying, 100 μL Optiphase ‘SuperMix’ liquid scintillation cocktail (Perkin Elmer) was added to the well prior to scintillation counting (1450 Microbeta Liquid Scintillation Counter, Wallac).
After removing mean background values for all of the data points, Ki(app) data were calculated from non-linear regression analysis of the initial rate data using the Prism software package (GraphPad Prism version 3.0cx for Macintosh, GraphPad Software, San Diego Calif., USA).
Compounds were screened for their ability to inhibit Plk1 using a radioactive-phosphate incorporation assay. Assays were carried out in a mixture of 25 mM HEPES (pH 7.5), 10 mM MgCl2, 0.1% BSA, and 2 mM DTT. Final substrate concentrations were 150 μM (350 μM for determining values of <1 nM) [γ-33P]ATP (115 mCi 33P ATP/mmol ATP, Amersham Pharmacia Biotech/Sigma Chemicals) and 300 μM (450 μM for determining values of <1 nM) peptide (KKKISDELMDATFADQEAK) SEQ. ID NO. 1. Assays were carried out at 25° C. in the presence of 4 nM (1 nM for determining values of <1 nM) Plk1. An assay stock buffer solution was prepared containing all of the reagents listed above, with the exception of ATP and the test compound of interest. 30 μL of the stock solution was placed in a 96 well plate followed by addition of 2 μL of DMSO stock containing serial dilutions of the test compound (typically starting from a final concentration of 10 μM with 2-fold serial dilutions) in duplicate (final DMSO concentration 5%). The plate was pre-incubated for 10 minutes at 25° C. and the reaction initiated by addition of 8 μl [γ-33P]ATP (final concentration 150 μM (350 μM for determining values of <1 nM))).
The reaction was stopped after 90 minutes (240 minutes for determining values of <1 nM) by the addition of 100 μL 0.14M phosphoric acid. A multiscreen phosphocellulose filter 96-well plate (Millipore, Cat no. MAPHN0B50) was pretreated with 100 μL 0.2M phosphoric acid prior to the addition of 125 μL of the stopped assay mixture. The plate was washed with 4×200 μL 0.2M phosphoric acid. After drying, 100 μL Optiphase ‘SuperMix’ liquid scintillation cocktail (Perkin Elmer) was added to the well prior to scintillation counting (1450 Microbeta Liquid Scintillation Counter, Wallac).

The values below come from patent publication US8524902B2, “[1,2,4]triazolo[4,3-f]pteridines useful as inhibitors of protein kinases” (Vertex Pharmaceuticals Incorporated, priority 2006, dated 2013).

T1 sequence (P53350 20-338): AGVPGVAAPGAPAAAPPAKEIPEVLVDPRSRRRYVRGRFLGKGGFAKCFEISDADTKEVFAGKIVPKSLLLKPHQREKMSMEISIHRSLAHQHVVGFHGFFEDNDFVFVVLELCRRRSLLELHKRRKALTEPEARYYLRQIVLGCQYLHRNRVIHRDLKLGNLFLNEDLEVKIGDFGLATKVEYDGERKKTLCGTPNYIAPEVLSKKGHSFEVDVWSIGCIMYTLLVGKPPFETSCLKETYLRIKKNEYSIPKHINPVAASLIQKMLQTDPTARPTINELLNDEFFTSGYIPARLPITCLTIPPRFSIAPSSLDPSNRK

Consider `CC[C@@H]1c2nncn2-c2cnc(Nc3cccnc3)nc2N1C1CCCC1` [Compound I-25, (R)-5-cyclopentyl-4-ethyl-N-(pyridin-3-yl)-4,5-dihydro-[1,2,4]triazolo[4,3-f]pteridin-7-amine], for which the Ki was less than 10 nM.

As to `CC[C@@H]1c2nncn2-c2cnc(Nc3ccc(C(=O)NC)cc3OC)nc2N1C1CCC1` [Compound I-29, (R)-4-(5-cyclobutyl-4-ethyl-4,5-dihydro-[1,2,4]triazolo[4,3-f]pteridin-7-ylamino)-3-methoxy-N-methylbenzamide], the Ki was less than 10 nM.

Regarding `CC[C@@H]1c2nncn2-c2cnc(Nc3ccc(C(=O)NC)cc3COC)nc2N1C1CCCC1` [Compound I-30, (R)-4-(5-cyclopentyl-4-ethyl-4,5-dihydro-[1,2,4]triazolo[4,3-f]pteridin-7-ylamino)-3-(methoxymethyl)-N-methylbenzamide], the Ki was less than 10 nM.

For the compound `CC[C@@H]1c2nncn2-c2cnc(NCc3ccccc3)nc2N1C1CCCC1` [Compound I-31, (R)—N-benzyl-5-cyclopentyl-4-ethyl-4,5-dihydro-[1,2,4]triazolo[4,3-f]pteridin-7-amine], the Ki fell in the range of 10 to 100 nM.

On to `CC[C@@H]1c2nncn2-c2cnc(Nc3ccc(N4CCN(C)CC4)cc3)nc2N1C1CCCC1` [Compound I-32, (R)-5-cyclopentyl-4-ethyl-N-(4-(4-methylpiperazin-1-yl)phenyl)-4,5-dihydro-[1,2,4]triazolo[4,3-f]pteridin-7-amine], for which the Ki was less than 10 nM.

As to `CC[C@@H]1c2nncn2-c2cnc(Nc3ccc(OC(F)F)cc3)nc2N1C1CCCC1` [Compound I-33, (R)-5-cyclopentyl-N-(4-(difluoromethoxy)phenyl)-4-ethyl-4,5-dihydro-[1,2,4]triazolo[4,3-f]pteridin-7-amine], the Ki is less than 10 nM.

Turning to `CC[C@@H]1c2nncn2-c2cnc(Nc3ccc(N4CCOCC4)cc3)nc2N1C1CCCC1` [Compound I-34, (R)-5-cyclopentyl-4-ethyl-N-(4-morpholinophenyl)-4,5-dihydro-[1,2,4]triazolo[4,3-f]pteridin-7-amine], the Ki is less than 10 nM.

For `CC[C@@H]1c2nncn2-c2cnc(Nc3ccc(F)cc3)nc2N1C1CCCC1` [Compound I-35, (R)-5-cyclopentyl-4-ethyl-N-(4-fluorophenyl)-4,5-dihydro-[1,2,4]triazolo[4,3-f]pteridin-7-amine], the Ki is less than 10 nM.

For the compound `CC[C@@H]1c2nncn2-c2cnc(Nc3ccc(-n4cccn4)cc3)nc2N1C1CCCC1` [Compound I-39, (R)—N-(4-(1H-pyrazol-1-yl)phenyl)-5-cyclopentyl-4-ethyl-4,5-dihydro-[1,2,4]triazolo[4,3-f]pteridin-7-amine], the Ki is less than 10 nM.

Take `CC[C@@H]1c2nncn2-c2cnc(Nc3ccc(C(F)(F)F)nc3)nc2N1C1CCCC1` [Compound I-40, (R)-5-cyclopentyl-4-ethyl-N-(6-(trifluoromethyl)pyridin-3-yl)-4,5-dihydro-[1,2,4]triazolo[4,3-f]pteridin-7-amine]: the Ki lay within 10 to 100 nM.

For `CC[C@@H]1c2nncn2-c2cnc(Nc3ccc(N4CCN(C)CC4)nc3)nc2N1C1CCCC1` [Compound I-41, (R)-5-cyclopentyl-4-ethyl-N-(6-(4-methylpiperazin-1-yl)pyridin-3-yl)-4,5-dihydro-[1,2,4]triazolo[4,3-f]pteridin-7-amine], the Ki was less than 10 nM.

Regarding `CC[C@@H]1c2nncn2-c2cnc(Nc3ccc(N4CCCC4)cc3)nc2N1C1CCCC1` [Compound I-42, (R)-5-cyclopentyl-4-ethyl-N-(4-(pyrrolidin-1-yl)phenyl)-4,5-dihydro-[1,2,4]triazolo[4,3-f]pteridin-7-amine], the Ki was less than 10 nM.
